From US20020162125A1, “Methods and compositions for the modulation of neurogenic inflammatory pain and physical opiate withdrawal” (priority 2001, published 2002)
Like-named read-outs stand apart in the source and are kept apart here.

What was measured:
[1] = test system: αCGRP −/− and αCGRP +/+ mice; conditions: αCGRP −/− mice vs +/+, 30 min after injection
Procedure: The tail flick assay was performed with a tail flick analgesia meter from Columbus Instruments. The cut-off time of the test was 10 seconds.
Morphine or nicotine analgesia were analyzed by using tail flick and hot plate tests. The tests were performed 30 minutes after the injection of drug on αCGRP −/− and +/+ mice.

[2] = test system: αCGRP −/− and αCGRP +/+ mice; test: Morphine tolerance in the tail-flick assay after repeated injections; type: in vivo; conditions: αCGRP −/− vs +/+ mice; repeated ip morphine, day 1-2 50 mg/kg, day 3-4 100 mg/kg
Procedure: Daily injections ip of morphine were performed: day 1 and 2, 50 mg/kg, day 3-4, 100 mg/kg. Analgesia morphine was tested. αCGRP −/− and +/+ mice were analyzed in parallel.

[3] = test system: αCGRP −/− and αCGRP +/+ mice; conditions: αCGRP −/− mice vs +/+; nicotine 0.5 and 2.0 mg/kg sc; data not shown
[4] = test system: αCGRP −/− and αCGRP +/+ mice; test: Heroin self-administration (lever press operant task); type: in vivo
Procedure: Following acquisition of stable heroin self-administration at 15.0 μg/kg/injection dose (3 consecutive sessions <+/−20% variation, >70% active lever responding), mice were allowed to self-administer heroin at each dose during two daily two-hr sessions in a Latin square dose order. After all heroin doses had been tested, saline vehicle was substituted for heroin until responding stabilized for at least 2 consecutive sessions (data points above “saline”).
All procedures involving animals described here were approved by the Service Vétérinaire of the Canton of Vaud, Lausanne, Switzerland. Six individually housed mice of each genotype (CGRP −/− and +/+) were tested during the light phase (12/12; lights on 7:00 am) in daily sessions 5 days/week. Operant chambers housed in sound-attenuating cubicles with a house light and ventilation fan were equipped with cue lights above two retractable levers, a liquid dipper, syringe pump, liquid swivel and counterbalance arm (swivel and counterbalance arms—Instech, Plymouth Meeting, Pa., USA; all other equipment—MedAssociates, Georgia, Vt., USA). A single lever press on the “active” lever raised the dipper into the cage for 10 s and illuminated the cue light above the lever during reinforcer presentation and for a 1-10 s post-reinforcer Time-out (TO) period, depending on the schedule of reinforcement. […]

[5] = test system: αCGRP −/− and αCGRP +/+ mice; test: Morphine dependence, naloxone-precipitated somatic withdrawal signs
Procedure: Morphine dependence was induced by repeated ip morphine injection for one week: day 1 and 2, 50 mg/kg; day 3 and 4, 100 mg/kg; days 5-7, 100 mg/kg twice/day; day 8, 100 mg/kg in the morning. […] The inventors noted the behavioral withdrawal symptoms (jumping, teeth chattering, tremors, paw tremors, wet dog shakes, ptosis, diarrhea) during 30 minutes after naloxone injection.

CN1CC[C@]23c4c5ccc(O)c4O[C@H]2[C@@H](O)C=C[C@H]3[C@H]1C5 [morphine]
analgesic response in tail-flick (% MPE) ([1]; morphine 1 mg/kg ip): attenuated
analgesic response in tail-flick (% MPE) ([1]; morphine 5 mg/kg ip): to a lesser extent
progressive decrease in amplitude of antinociceptive response (tolerance), tail-flick [2]: did not differ

CN1CCCC1c1cccnc1 (stereo not shown) [nicotine]
analgesic effects in hot-plate test [3]: significantly increased
analgesic effects in tail-flick (% MPE) ([1]; nicotine 0.5 and 2.0 mg/kg sc): significantly increased

CC(=O)Oc1ccc2c3c1O[C@H]1[C@@H](OC(C)=O)C=C[C@H]4[C@@H](C2)N(C)CC[C@@]341 [heroin]
intake (injections per session) at 30 μg/kg/injection vs 7.5 and 15.0 μg/kg/injection doses ([4]; both genotypes, P<0.05): differed significantly
acquisition or maintenance of self-administration ([4]; αCGRP −/− vs +/+ mice, 3.75-30 μg/kg/injection iv, FR2): did not differ

C=CCN1CC[C@]23c4c5ccc(O)c4O[C@H]2C(=O)CC[C@@]3(O)[C@H]1C5 [naloxone]
withdrawal signs in saline-treated control mice ([5]; naloxone 2 mg/kg ip, mutant and wild type, data not shown): did not induce any withdrawal signs
total withdrawal scores ([5]; αCGRP −/− vs +/+ mice made morphine dependent, naloxone 0.1, 0.2 and 2.0 mg/kg ip): significantly lower
frequency of each somatic sign of morphine withdrawal (e.g. jumping) ([5]; αCGRP −/− vs +/+ mice made morphine dependent, precipitated by naloxone): reduced
